Each structure is given as a SMILES string.

This note sets out measurements from the pKa sets of Baltruschat and Czodrowski (2020).

As for `O=C(O)Cn1cccc1`, the pKa (acidic group) came out at 3.3. For the molecule `CCN(CC)CCC[NH+](CC)CC`, for the setting “basic group”, the pKa was 8.2. On the same count and under the same terms, the result for `CC(=O)Nc1ccncc1` reads 5.87. Turning to `O=C(O)CCP`, where the note is “acidic group”, the pKa stood at 4.23. The same measure, in the same setting: the result for `[NH3+]C(CC(=O)O)c1cccc[nH+]1` (stereo not given) reads 1.3; that for `C/C(=N\O)C(=O)NO`, 7.74. On the same count and under the same terms, then `C[NH2+]CC(=O)O`, with 2.24. Molecule `O=C([O-])c1nc[nH]c1C(=O)[O-]` gave a pKa (basic group) of 8.49.

`N=C(N)Nc1nc(N)nc(NC(=N)N)n1` had a pKa (basic group) of 9.8. The same measure, in the same setting: the result for `Cc1cccc(N)c1` reads 4.7; that for `CC(=O)OCCN(C)C`, 8.3; that for `[NH3+]c1ccc(-c2ncc(-c3ccc(Br)cc3)o2)cc1`, -0.05. Regarding `CN(C)Cc1ccc(NC(=O)/C=N/[O-])cc1`, under “basic group”, the pKa turned out to be 9.56. Same read-out and setting: then `CCCCc1cccnn1`, with 3.49. Take `C1CNC[NH2+]C1`: the pKa (basic group) was 4.71. `CC(=O)c1c(C(=O)O)cccc1[N+](=O)[O-]` had a pKa (acidic group) of 3.26.

For the molecule `CC(=O)/C(CN1CCCCC1)=N\[O-]`, where the note is “basic group”, the pKa came to 10.7. Same read-out and setting: the result for `Clc1ccnc2c1ccc1c(Cl)ccnc12` reads 3.03. The molecule `Nc1nccc2c1[nH+]cn2CCOCP(=O)([O-])O` returned a pKa (acidic group) of 6.56. The same measure, in the same setting: then `CC1(C)S[C@H]2[C@@H](NC(=O)Cc3ccc(O)cc3)C(=O)N2[C@@H]1C(=O)O`, with 2.62. In the case of `NCC(=O)NN`, the pKa (basic group) was determined as 7.69.

With `CCN1CC[C@]2(C)c3cc(O)ccc3C[C@H]1[C@H]2C`, the pKa (basic group) came to 9.42. Consider `O=c1cc(-c2ccc(O)cc2)ss1`, for which the pKa (acidic group) was determined as 8.27.

For the molecule `CC1NCCc2c1[nH]c1ccc([N+](=O)[O-])cc21` (stereo not given), the pKa (acidic group) is 14.1.

`CCCCNC(=O)NS(=O)(=O)c1ccc(C)cc1` came in with a pKa (acidic group) of 5.3. Consider `Nc1nc2nc[n-]c2c(N)[n+]1[O-]`, for which the pKa (acidic group) came out at 12. On to `Cc1cccc(C)c1C(=N)c1ccccc1`, for which the pKa (basic group) was 7.71. Still for that read-out and setting: then `COc1ccc2c3c1O[C@H]1C(=O)CC[C@H]4[C@@H](C2)N(C)CC[C@]314`, with 7.67; and `CC(C)N[C@H](c1ccccc1)[C@H](O)c1ccccc1`, with 11.8; and `CC(C)c1ccccn1`, with 5.83. On the same count and under the same terms, then `[NH3+]CCCCc1cccnc1`, with 5.52. Turning to `Cc1ccc(C)c(NN=C(C#N)C#N)c1`, the pKa reads like this: (acidic group) 6.75; (basic group) -0.84.

Where the note is “basic group”, `Cc1cc(N)nc2c1ccc1ccccc12` displayed a pKa of 6.02.

In turn, `[O-]c1ccnc2nccnc12` gave a pKa (basic group) of 8.78. For `CCOc1cccc(C)c1C(=O)O`, for the setting “acidic group”, the pKa was 3.51.

In turn, `CC1CCC(=O)C1=O` (stereo not given) displayed a pKa (acidic group) of 9.6. Turning to `CN(C)c1ncnc2nc[nH]c12`, the pKa by setting is: (acidic group) 10.5; (basic group) 3.87.

For the molecule `CCN(CC)CCC(=O)Nc1c(C)cccc1C`, the pKa (basic group) is 8.96. `Oc1c(Cl)cccc1Cl` displayed a pKa (acidic group) of 6.8. Still for that read-out and setting: the result for `O/N=C\c1ccco1` reads 10.8. On to `CC(C)CN`, for which the pKa (basic group) stood at 10.4. With `OC(c1ccccc1)(c1ccccc1)c1ccccn1`, the pKa (basic group) came to 3.9. Under “acidic group”, `C[n+]1cccc2c(S)cccc21` came in with a pKa of 3.22. With `O=c1cc(-c2ccc(O)cc2)oc2ccccc12`, the pKa (acidic group) turned out to be 8.27. Molecule `Cc1cnnc(C)c1` gave a pKa (basic group) of 4.11. For `CCc1cc(C(C)C)ccc1O`, the pKa (acidic group) amounted to 10.8. Still for that read-out and setting: the result for `Cc1ccc(C(=O)C[S+](C)C)cc1` reads 8.9.

`Nc1ncccc1C(=O)[O-]`: the pKa (basic group) turned out to be 6.59.

As to `Cc1cc(-c2c(C)noc2O)on1`, the pKa (acidic group) amounted to 3.2. As for `CN(C)c1ccc(N)cc1`, the pKa (basic group) was found to be 6.37. Molecule `Nc1ccc(S(=O)(=O)Nc2cncnc2)cc1` had a pKa (acidic group) of 6.62 and a pKa (basic group) of 1.9. Take `Nc1nc(N)nc(N(CCO)CCO)n1`: the pKa (basic group) came to 5.1. On to `COc1ccc(-c2cnc(-c3ccc(N)cc3)o2)cc1`, for which, where the note is “basic group”, the pKa amounted to 3.22. On the same count and under the same terms, the result for `NCC#CC#CCCC(=O)[O-]` reads 8.26; that for `C[NH+](C)CCNc1ccnc2cccc([N+](=O)[O-])c12`, 5.77; that for `Cc1cc(C(c2ccc(N)cc2)c2ccc([NH3+])cc2)ccc1[NH3+]`, 2.6.

The molecule `CC[NH+](CC)CCCC(C)Nc1ccnc2cc(Br)ccc12` (stereo not given) came in with a pKa (basic group) of 8.1. On to `COc1ccccc1/C=N/O`, for which, for the setting “acidic group”, the pKa is 10.9. In the case of `CC1NCCCN1`, for the setting “basic group”, the pKa turned out to be 9.09. Same read-out and setting: the result for `CSc1cc(C)ncn1` reads 3.25.

Where the note is “acidic group”, `Cc1ccc(O)c(Cc2cc(C)cc([N+](=O)[O-])c2O)c1` had a pKa of 6.87. For the molecule `C/C(=C(\CCO)SSCCC(C)C)N(C=O)Cc1cnc(C)nc1N`, for the setting “basic group”, the pKa amounted to 5.58. On the same count and under the same terms, the result for `O=Cc1ccc(-c2cnc(-c3ccccc3)o2)cc1` reads 0.57. The same measure, in the same setting: the result for `COc1ccc(N)cc1` reads 5.35; that for `O=C([O-])C(CO)NCc1cc(Cl)ccc1[O-]` (stereo not given), 10.2. On to `CO[C@H]1CC=C2CCN3CCC(CO)=C(CCO)[C@]23C1`, for which, where the note is “basic group”, the pKa turned out to be 8.69. Turning to `Nc1ccc(Cl)cc1N`, the pKa (basic group) was 4.3. Under “acidic group”, `C=C(C)C(C)(C(N)=O)C(=O)O` (stereo not given) had a pKa of 3.42.

Turning to `c1ccc(CSc2nc(SCc3ccccc3)c(-c3ccccc3)[nH]2)cc1`, the pKa by setting is: (acidic group) 10.9; (basic group) 2.7. As to `COc1ccc(C(=O)S)cc1`, the pKa was 2.79 (acidic group) and -4.9 (basic group). As to `CCC(C)(CC)Nc1ccccc1`, the pKa (basic group) is 6.32. For `CC(C)n1nnnc1N`, for the setting “basic group”, the pKa amounted to 1.91. In turn, `CCN(CC)Cc1ccccc1OC` showed a pKa (basic group) of 10.2. Take `CC[C@H](C(=O)O)[C@@]1(O)C[C@H]2CC[C@@H]1C2`: for the setting “acidic group”, the pKa came to 4.07. The same measure, in the same setting: then `CC1(C)N=C(C(=O)CC(=O)C(F)(F)F)C(C)(C)N1O`, with 4.66. Regarding `CCN(CC)C(=S)NC(=O)c1cccc(C)c1`, the pKa (acidic group) amounted to 8.36.

Consider `N#CN`, for which, for the setting “basic group”, the pKa was determined as 1.1. `N#CC(=C(O)O)c1ccccc1` gave a pKa (acidic group) of 0.99. In turn, `CN(C)CCC/N=C(\c1ccccc1)c1ccccc1-c1ccccc1` showed a pKa (basic group) of 9.2. Where the note is “basic group”, `COc1nccc2ccccc12` came in with a pKa of 3.05. Same read-out and setting: the result for `Nc1c2ccccc2nc2cccc([N+](=O)[O-])c12` reads 7.3. Still for that read-out and setting: then `Nc1nc([Se-])c2ncn([C@H]3O[C@@H](CO)[C@H](O)[C@@H]3O)c2n1`, with 7.68; and `Cc1nn(C)c2c1C(c1ccccc1F)=NCC(=O)N2C`, with 4.69. With `COC(=O)[C@H]1[C@@H]2Cc3c4[nH]c5ccccc5c4cc[n+]3C[C@H]2CC[C@H]1O`, for the setting “acidic group”, the pKa came to 10.7. On the same count and under the same terms, the result for `COc1ccc(O)c(Br)c1` reads 8.62; that for `Cc1cccc(C(=O)O)c1[N+](=O)[O-]`, 2.91.

As to `CCc1ncc[nH]1`, the pKa (basic group) was 8.05.

For the setting “acidic group”, `Nc1nc2c(ncn2[C@@H]2C[C@@H](O)[C@H](CO)O2)c(O)[nH+]1` showed a pKa of -0.97. Under “acidic group”, `CC(C(=O)O)C(C#N)c1ccccc1` (stereo not given) registered a pKa of 3.7. For `CC(C[NH3+])C(=O)O` (stereo not given), the pKa (acidic group) was 3.53. `C/C(=C/Cl)C(=O)O` showed a pKa (acidic group) of 3.05.

In turn, `[O-]c1[nH+]c(O)nc2nc[nH]c12` came in with a pKa (acidic group) of 7.56. For `COc1cc2c(OC)ncnc2c(OC)c1OC`, the pKa (basic group) was found to be 3.34. The molecule `Cc1cc(C)c(/N=N/c2c(C)cc(O)cc2C)c(C)c1` registered a pKa (acidic group) of 9.1. Consider `Fc1ccc2[nH]cnc2c1`, for which the pKa (basic group) was determined as 5.11.

What is called pKa is the pH at which an ionisable group is half protonated. Read a low pKa as a group that gives up its proton readily.
